The target of assay [1] is T1, ARAF (Homo sapiens, UniProt P10398).
T1 sequence (P10398 310-570 limits assumed): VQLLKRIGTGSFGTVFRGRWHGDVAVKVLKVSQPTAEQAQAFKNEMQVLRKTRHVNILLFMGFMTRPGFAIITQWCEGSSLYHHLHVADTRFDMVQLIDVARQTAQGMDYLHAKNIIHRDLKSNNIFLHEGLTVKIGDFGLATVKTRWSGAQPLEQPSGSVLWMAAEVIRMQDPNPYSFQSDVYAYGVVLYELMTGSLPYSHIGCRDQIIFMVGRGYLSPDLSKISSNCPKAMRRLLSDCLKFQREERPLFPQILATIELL
The assay can be described thus: ARAF kinase activity assay (AlphaLISA p-MEK detection). Particulars: Table A. It is filed as biochemical. As for the experimental part:
Compound preparation: solid samples of each substances in 1dram vials were suspended in DMSO (Fisher Scientific) at a stock concentration of 20 mM. Stocks were kept at −20° C. and protected from light. If solubility of the compound at 20 mM appeared to be an issue, the initial concentration of the DMSO stock was changed to 10 mM or 5 mM.
In vitro enzymatic reactions were used for evaluating compounds intrinsic activity against BRAF, CRAF and ARAF. For BRAF and CRAF, 0.375 nM of purified GST-tagged kinases (cat #B4062-10UG and cat #R1656-10UG respectively from Millipore Sigma) were incubated with 75 nM of kinase-dead MEK1 substrate (cat #40075; BPS Bioscience) in the presence of 10 μM of Ultrapure ATP (cat #V9102; Promega; part V915A) with and without the test compound in a buffer containing 50 mM HEPES pH 7.5, 10 mM MgCl2, 1 mM EDTA, 0.01% Brij-35 and 2 mM DTT. Separate reactions were performed with the MEK1 substrate and ATP as a blank control. ARAF, kinase reactions were rigorously the same with the exception that kinase concentration was raised to 3.75 nM (cat #1768-0000-1; Reaction Biology).
For compound treatment, 5 μL/well of test substance solution are placed in a 384-well proxyplate (Perkin Elmer) and mixed with 2× concentrated kinase reactions. The dilution series is selected so that nine concentrations cover a range from 100 nM to 0.01 nM. […] The final concentration of DMSO in the assay is set at 0.05%.
ARAF kinase reactions were carried out for a total of 2 hours at 30° C. and then stopped by addition of EDTA at a final concentration of 40 mM. Reactions were then detected using the AlphaLISA® SureFire® Ultra™ p-MEK ½ (Ser218/222) (PerkinElmer) kit. Reactions were performed with 5 μL of kinase reaction according to the manufacturer's specifications in 384-well proxyplates (Perkin Elmer) followed by overnight incubation of the reactions at room temperature in a humidified chamber. After completion of the detection reactions, the signals were recorded on a Synergy Neo2 plate reader (Biotek) equipped with AlphaLISA® filters. The effect of each compound dilution on the pMEK signal generated by ARAF reactions was expressed in % inhibition and calculated as follows. An internal 100% inhibition control (average of luminescence in kinase reactions comprising kinase dead MEK1 substrate alone) was included in each plate to measure of pMEK background and was subtracted from each data point. The average of DMSO (vehicle) controls (set as 0% inhibition) was also established and used to calculate % inhibition:
IC50 values were obtained by plotting the kinase inhibition values and fitting the dose-activity curves using a log(agonist) versus response−variable slope (four parameters) function using either GraphPadPrism (V7.0) or Dotmatics Screening Ultra platform. Standards included in the ARAF kinase assay were Belvarafenib (MedChem Express cat #HY-109080; CAS #1446113-23-0), LXH254 (MedChem Express cat #HY-112089; CAS #1800398-38-2) and BGB283 (cat #HY-18957; CAS #1446090-79-4).
For orientation: In Alpha technology, singlet oxygen from a donor bead excites a nearby acceptor bead.

Assay [2] addresses T2, BRAF (Homo sapiens, UniProt P15056).
T2 construct: GST; purchased Millipore Sigma B4062-10UG
Put plainly: BRAF kinase activity assay (ADP-Glo). It is filed as biochemical. The settings on record: Table 3. In outline: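 GST-tagged BRAF (0.375 nM) was reacted with 75 nM kinase-dead MEK1 and 10 μM ATP for 2 h at 30 °C in HEPES pH 7.5 buffer with MgCl2, EDTA, Brij-35 and DTT. Compounds were tested at nine concentrations from 100 nM to 0.01 nM with 0.05% DMSO final. ADP-Glo luminescence gave % inhibition, and IC50 came from a four-parameter fit.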
On the technique in general: ADP-Glo turns the ADP formed in a reaction into a luminescent signal.

One may read the IC50 as the concentration needed to halve the response being measured.

Bounds are passed on as bounds.

T2 sequence (P15056 whole entry): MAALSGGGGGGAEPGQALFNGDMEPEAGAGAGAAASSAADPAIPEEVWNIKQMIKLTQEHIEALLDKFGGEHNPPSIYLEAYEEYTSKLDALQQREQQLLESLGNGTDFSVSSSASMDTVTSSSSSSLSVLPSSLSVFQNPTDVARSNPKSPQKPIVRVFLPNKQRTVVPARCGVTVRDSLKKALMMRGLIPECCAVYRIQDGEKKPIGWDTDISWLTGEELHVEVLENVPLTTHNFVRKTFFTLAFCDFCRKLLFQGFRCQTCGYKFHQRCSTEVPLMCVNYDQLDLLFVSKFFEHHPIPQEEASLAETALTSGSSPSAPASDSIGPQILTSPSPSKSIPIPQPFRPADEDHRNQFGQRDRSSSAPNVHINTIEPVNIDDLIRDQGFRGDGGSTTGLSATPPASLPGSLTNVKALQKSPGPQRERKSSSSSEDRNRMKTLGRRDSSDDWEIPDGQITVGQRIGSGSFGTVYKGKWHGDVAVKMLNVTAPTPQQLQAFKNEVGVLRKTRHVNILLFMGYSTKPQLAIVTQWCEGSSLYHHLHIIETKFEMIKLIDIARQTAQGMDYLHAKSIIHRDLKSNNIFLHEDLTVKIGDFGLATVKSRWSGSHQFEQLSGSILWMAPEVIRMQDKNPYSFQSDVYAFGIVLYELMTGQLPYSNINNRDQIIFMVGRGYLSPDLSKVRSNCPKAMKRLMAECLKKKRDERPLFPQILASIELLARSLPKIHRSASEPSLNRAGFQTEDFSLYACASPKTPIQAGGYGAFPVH

Consider `Cc1ccc2c(Nc3cccc(Cl)c3F)nccc2c1NC(=O)c1csc2c(N)ncnc12` [Belvarafenib, reference compound], for which the IC50 in assay [1] was over 20 nM.
For the compound `Nc1cccc2c1ncn2-c1ncc2ncnc(Nc3c(F)ccc(NS(=O)(=O)c4cccc(Cl)c4Cl)c3F)c2n1` [Example 80], the IC50 in assay [2] was under 1 nM.
For the compound `Cc1c(F)cccc1S(=O)(=O)Nc1ccc(F)c(Nc2ncnc3cnc(-n4cc(C(=O)N(C)Cc5ccncc5)c5ccccc54)nc23)c1F` [Example 98], the half-inhibitory concentration (IC50) in assay [2] was under 1 nM; in assay [1] it was 10 to 20 nM.
On the same counts, the results for `COc1ccc(S(=O)(=O)Nc2ccc(F)c(Nc3ncnc4cnc(-n5cnc6c(N)cccc65)nc34)c2F)c(C)c1Cl` [Example 112] are over 10 nM and over 20 nM.
In the same order, the values of `Cc1c(F)cccc1S(=O)(=O)Nc1ccc(F)c(Nc2ncnc3cnc(-n4cnc5c(-c6cccnc6)cccc54)nc23)c1F` [Example 114] are 1 to 10 nM and under 10 nM.
In the same order, the values of `O=S(=O)(Nc1ccc(F)c(Nc2ncnc3cnc(-n4cnc5c(N6CCC7(CCCO7)CC6)cccc54)nc23)c1F)c1cccc(Cl)c1Cl` [Example 129] are over 10 nM and 10 to 20 nM.

The values above are taken from patent US20240239801A1, “PYRIMIDO[5,4,D]PYRIMIDINE COMPOUNDS, COMPOSITIONS COMPRISING THEM AND USES THEREOF” (Université de Montréal, priority 2021, published 2024).
